Results as given in patent publication US6818643B1, “Neurotrophic bicyclic diamides” (Bristol-Myers Squibb Company, priority 1999, dated 2004).
Like-named read-outs stand apart in the source and are kept apart here.

Molecular target: FKBP12 (Homo sapiens, UniProt P62942)
Test: Fluorescence Polarization (FP) Assay of FKBP12 Binding
Settings: for inhibition at 1 µM: read-out: % FP inhibition at 1 μM; for Ki: rotamase Ki derived from FP assay
Method: Fluorescence Polarization (FP) Assay of FKBP12 Binding
The buffer (25 mM HEPES, 100 mM sodium chloride, pH 7.5) with pre-mixed enzyme and fluorescent ligand is distributed into wells (190 μL/well). Inhibitors are added as 10 μL of a 10% dimethylsulfoxide solution in the same buffer. FP is measured with an excitation wavelength of 485 nm and emission wavelength of 520 nm.

[1] = Table 1, 1 μM compound, 100 nM fluorescent ligand, 200 nM FKBP12
[2] = Table 2, 1 μM compound, 100 nM fluorescent ligand, 200 nM FKBP12

Chain of FKBP12 (P62942 whole entry, species assumed): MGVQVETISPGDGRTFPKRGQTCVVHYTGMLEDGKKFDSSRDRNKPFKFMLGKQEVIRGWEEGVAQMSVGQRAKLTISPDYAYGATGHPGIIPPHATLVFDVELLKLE

Row | SMILES | inhibition at 1 µM [1] [%] | inhibition at 1 µM [2] [%] | Ki (Table 1) [nM] | also measured
1 | COc1ccc(CCN2CC3CCC(C2=O)N3C(=O)C(=O)c2cc(OC)c(OC)c(OC)c2)cc1OC [Example 2, (1S,5R)-8-(3,4,5-Trimethoxyphenyl)oxalyl-3,8-diaza-3-[2-(3,4-dimethoxyphenyl)ethyl]bicyclo[3.2.1]octan-2-one] | 3 | – | – | –
2 | COc1cc(C(=O)C(=O)N2C3CCC2C(=O)N(CCCOc2cccnc2)C3)cc(OC)c1OC [Example 8, (1S,5R)-8-(3,4,5-Trimethoxyphenyl)oxalyl-3,8-diaza-3-(3-(3-pyridyloxy)propyl)-bicyclo[3.2.1]octan-2-one] | 98 | – | – | –
3 | COc1cc(CCCC(CCCc2ccccc2)CN2CC3CCCC(C2=O)N3C(=O)C(=O)c2cc(OC)c(OC)c(OC)c2)cc(OC)c1OC (stereo not shown) [Example 23, 9-(3,4,5-Trimethoxyphenyl)oxalyl-3,9-diaza-3-[2-(3-phenylpropyl)-5-(3,4,5-trimethoxyphenyl)pentyl]bicyclo[3.3.1]-nonan-2-one] | – | 81 | – | Ki (Table 2): 44 nM
4 | COc1ccc(CCCN2CC3CCCC(C2=O)N3C(=O)C(F)(F)c2cc(OC)c(OC)c(OC)c2)cc1OC (stereo not shown) [Example 35, 9-(3,4,5-Trimethoxyphenyl)difluoroacetyl-3,9-diaza-3-[3-(3,4-dimethoxyphenyl)propyl]bicyclo[3.3.1]nonan-2-one] | – | – | 360 | inhibition at 1 µM: 47%
5 | COc1ccc(CCCC(CCCc2ccccc2)N2CC3CCC(C2=O)N3C(=O)C(=O)c2cc(OC)c(OC)c(OC)c2)cc1OC [Example 9, (1S,5R)-8-(3,4,5-Trimethoxyphenyl)oxalyl-3,8-diaza-3-[4-(3,4-dimethoxyphenyl)-1-(3-phenylpropyl)butyl]bicyclo[3.2.1]octan-2-one] | – | 1 | – | –
6 | CCC(C)(C)C(=O)C(=O)N1C2CCCC1C(=O)N(CCCc1cc(OC)c(OC)c(OC)c1)C2 (stereo not shown) [Example 41, 1-{3,9-Diaza-2-oxo-3-[3-(3,4,5-trimethoxyphenyl)propyl]bicyclo[3.3.1]non-9-yl}-3,3-dimethylpentane-1,2-dione] | 4 | – | – | –
7 | COc1cc(C(F)(F)C(=O)N2C3CCC2C(=O)N(C(CCc2ccccc2)CCc2ccccc2)C3)cc(OC)c1OC [Example 30, (1S,5R)-8-(3,4,5-Trimethoxyphenyl)difluoroacetyl-3,8-diaza-3-[3-phenyl-1-(2-phenylethyl)propyl]bicyclo[3.2.1]octan-2-one] | – | 4 | – | –
8 | COc1cc(CCCC(CCCc2ccccc2)CN2CC3CCCC(C2=O)N3C(=O)C(F)(F)c2cc(OC)c(OC)c(OC)c2)cc(OC)c1OC (stereo not shown) [Example 38, 9-(3,4,5-Trimethoxyphenyl)difluoroacetyl-3,9-diaza-3-[2-(3-phenylpropyl)-5-(3,4,5-trimethoxyphenyl)pentyl]bicyclo[3.3.1]-nonan-2-one] | – | 50 | – | –
9 | COc1ccc(CCCCN2CC3CCCC(C2=O)N3C(=O)C(=O)c2cc(OC)c(OC)c(OC)c2)cc1OC (stereo not shown) [Example 17, 9-(3,4,5-Trimethoxyphenyl)oxalyl-3,9-diaza-3-[4-(3,4-dimethoxyphenyl)butyl]bicyclo[3.3.1]-nonan-2-one] | 79 | – | 140 | –
10 | COc1cc(C(=O)C(=O)N2C3CCC2C(=O)N(CCCCc2ccccc2)C3)cc(OC)c1OC [Example 7, (1S,5R)-8-(3,4,5-Trimethoxyphenyl)oxalyl-3,8-diaza-3-(4-phenylbutyl)bicyclo[3.2.1]octan-2-one] | 6 | – | – | –
11 | COc1cc(C(=O)C(=O)N2C3CCCC2C(=O)N(CCCCCc2ccccc2)C3)cc(OC)c1OC (stereo not shown) [Example 20, 9-(3,4,5-Trimethoxyphenyl)oxalyl-3,9-diaza-3-(5-phenylpentyl)bicyclo[3.3.1]nonan-2-one] | – | – | 152 | –
12 | COc1ccc(CCC(CCc2ccccc2)CN2C[C@H]3CC[C@@H](C2=O)N3C(=O)C(=O)c2cc(OC)c(OC)c(OC)c2)cc1OC (stereo partly drawn) [Example 14, (1S,5R)-8-(3,4,5-Trimethoxyphenyl)oxalyl-3,8-diaza-3-[4-(3,4-dimethoxyphenyl)-2-(2-phenylethyl)butyl]-bicyclo[3.2.1]octan-2-one] | – | – | – | Ki (Table 2): 169 nM
13 | COc1cc(CCCC(CCCc2ccccc2)CN2CC3CCC(C2=O)N3C(=O)C(=O)c2cc(OC)c(OC)c(OC)c2)cc(OC)c1OC [Example 11, (1S,5R)-8-(3,4,5-Trimethoxyphenyl)oxalyl-3,8-diaza-3-[2-(3-phenylpropyl)-5-(3,4,5-trimethoxyphenyl)pentyl]bicyclo[3.2.1]octan-2-one] | – | 17 | – | –
14 | COc1ccc(CCC(CCc2ccccc2)CN2CC3CCCC(C2=O)N3C(=O)C(=O)c2cc(OC)c(OC)c(OC)c2)cc1OC (stereo not shown) [Example 26, 9-(3,4,5-Trimethoxyphenyl)oxalyl-3,9-diaza-3-[4-(3,4-dimethoxyphenyl)-2-(2-phenylethyl)butyl]-bicyclo[3.3.1]nonan-2-one] | – | – | – | Ki (Table 2): 51 nM
15 | COc1cc(CCCN2C[C@H]3CC[C@@H](C2=O)N3C(=O)C(F)(F)c2cc(OC)c(OC)c(OC)c2)cc(OC)c1OC [Example 31, (1S,5R)-8-(3,4,5-Trimethoxyphenyl)difluoroacetyl-3,8-diaza-3-[3-(3,4,5-trimethoxyphenyl)propyl]bicyclo[3.2.1]octan-2-one] | – | – | 598 | inhibition at 1 µM: 19%
16 | COc1ccc(CCCCN2CC3CCC(C2=O)N3C(=O)C(F)(F)c2cc(OC)c(OC)c(OC)c2)cc1OC [Example 29, (1S,5R)-8-(3,4,5-Trimethoxyphenyl)difluoroacetyl-3,8-diaza-3-[4-(3,4-dimethoxyphenyl)butyl]bicyclo[3.2.1]octan-2-one] | 8 | – | – | –
17 | COc1ccc(CCC(Cc2ccc(OC)c(OC)c2)CN2CC3CCCC(C2=O)N3C(=O)C(=O)c2cc(OC)c(OC)c(OC)c2)cc1OC (stereo not shown) [Example 25, 9-(3,4,5-Trimethoxyphenyl)oxalyl-3,9-diaza-3-[4-(3,4-dimethoxyphenyl)-2-((3,4-dimethoxy-phenyl)methyl)butyl]bicyclo-[3.3.1]nonan-2-one] | – | – | – | Ki (Table 2): 18 nM
18 | COc1cc(C(=O)C(=O)N2C3CCC2C(=O)N(CC(CCCc2ccccc2)CCCc2ccccc2)C3)cc(OC)c1OC [Example 10, (1S,5R)-8-(3,4,5-Trimethoxyphenyl)oxalyl-3,8-diaza-3-[5-phenyl-2-(3-phenyl-propyl)pentyl]bicyclo[3.2.1]-octan-2-one] | – | 14 | – | –
19 | CCC(C)(C)C(=O)C(=O)N1C2CCC1C(=O)N(CCCc1cc(OC)c(OC)c(OC)c1)C2 (stereo not shown) [Example 39, 1-{3,8-Diaza-2-oxo-3-[3-(3,4,5-trimethoxyphenyl)propyl]bicyclo[3.2.1]oct-8-yl}-3,3-dimethylpentane-1,2-dione] | 4 | – | – | –
20 | COc1cc(C(F)(F)C(=O)N2C3CCCC2C(=O)N(CC(CCCc2ccccc2)CCCc2ccccc2)C3)cc(OC)c1OC (stereo not shown) [Example 37] | – | 4 | – | –
21 | COc1cc(C(=O)C(=O)N2[C@@H]3CC[C@H]2C(=O)N(CCCc2ccccc2)C3)cc(OC)c1OC [Example 1, (1S,5R)-8-(3,4,5-Trimethoxyphenyl)oxalyl-3,8-diaza-3-(3-phenylpropyl)bicyclo[3.2.1]octan-2-one] | 34 | – | 699 | –
22 | COc1cc(CCCN2C[C@H]3CC[C@@H](C2=O)N3C(=O)C(=O)c2cc(OC)c(OC)c(OC)c2)cc(OC)c1OC [Example 6, (1S,5R)-8-(3,4,5-Trimethoxyphenyl)oxalyl-3,8-diaza-3-[3-(3,4,5-trimethoxyphenyl)propyl]bicyclo[3.2.1]octan-2-one] | 47 | – | 242 | –
23 | COc1cc(C(F)(F)C(=O)N2C3CCC2C(=O)N(CC(CCCc2ccccc2)CCCc2ccccc2)C3)cc(OC)c1OC [Example 33, (1S,5R)-8-(3,4,5-Trimethoxyphenyl)difluoroacetyl-3,8-diaza-3-[5-phenyl-2-(3-phenyl-propyl)pentyl]bicyclo[3.2.1]-octan-2-one] | – | 7 | – | –
24 | COc1ccc(CCCN2CC3CCCC(C2=O)N3C(=O)C(=O)c2cc(OC)c(OC)c(OC)c2)cc1OC (stereo not shown) [Example 16, 9-(3,4,5-Trimethoxyphenyl)oxalyl-3,9-diaza-3-[3-(3,4-dimethoxyphenyl)propyl]bicyclo[3.3.1]nonan-2-one] | 76 | – | 150 | –
25 | COc1cc(C(=O)C(=O)N2C3CCCC2C(=O)N(CCCc2ccccc2)C3)cc(OC)c1OC (stereo not shown) [Example 18, 9-(3,4,5-Trimethoxyphenyl)oxalyl-3,9-diaza-3-(3-phenylpropyl)bicyclo[3.3.1]nonan-2-one] | – | – | 60 | –
26 | COc1cc(C(=O)C(=O)N2C3CCCC2C(=O)N(CCCCc2ccccc2)C3)cc(OC)c1OC (stereo not shown) [Example 19, 9-(3,4,5-Trimethoxyphenyl)oxalyl-3,9-diaza-3-(4-phenylbutyl)bicyclo[3.3.1]nonan-2-one] | – | – | 85 | –
27 | COc1cc(C(=O)C(=O)N2C3CCCC2C(=O)N(CC(CCCc2ccccc2)CCCc2ccccc2)C3)cc(OC)c1OC (stereo not shown) [Example 22, 9-(3,4,5-Trimethoxyphenyl)oxalyl-3,9-diaza-3-[5-phenyl-2-(3-phenylpropyl)pentyl]bicyclo[3.3.1]nonan-2-one] | – | 17 | – | –
28 | COc1ccc(CCCN2C[C@H]3CC[C@@H](C2=O)N3C(=O)C(=O)c2cc(OC)c(OC)c(OC)c2)cc1OC [Example 3, (1S,5R)-8-(3,4,5-Trimethoxyphenyl)oxalyl-3,8-diaza-3-[3-(3,4-dimethoxyphenyl)propyl]bicyclo[3.2.1]octan-2-one] | 26 | – | 380 | –
29 | COc1cc(CCCC(CCCc2ccccc2)CN2CC3CCC(C2=O)N3C(=O)C(F)(F)c2cc(OC)c(OC)c(OC)c2)cc(OC)c1OC [Example 34, (1S,5R)-8-(3,4,5-Trimethoxyphenyl)difluoroacetyl-3,8-diaza-3-[2-(3-phenylpropyl)-5-(3,4,5-trimethoxyphenyl)pentyl]bicyclo[3.2.1]octan-2-one] | – | 11 | – | –
